Laboratory results taken from patent publication US11597737B2, “Small molecule inhibitors selective for polo-like kinase proteins” (UNIVERSITY OF SOUTH CAROLINA, priority 2016, dated 2023).

What was measured:
PLK1 PBD (367-603) = target: T1, PLK1 PBD (367-603) (Homo sapiens, UniProt P53350); experiment: Fluorescence polarization assay, PLK1 PBD; assay type: binding
T1 construct: PLK1 PBD (367-603); purchased BPS Biosciences Inc. (San Diego, Calif.)
Method: Fluorescence Polarization Assay
Materials were dissolved in DMSO (10 mM) and diluted from 10 nM to 600 μM (maximum of 6% DMSO tolerance in the assay). […] Incubation was carried out at room temperature for 45 minutes. Fluorescence was measured using a DTX 880 plate reader and Multimode Analysis software (Beckman Coulter, Brea, Calif.). […] Each data point was performed in triplicate for every experiment, and experiments were performed at least three times. An IC50 value for each compound was calculated from linear regression analysis of the plots.

full length PLK1 = target: T2, full length PLK1 (Homo sapiens, UniProt P53350); experiment: PLK1 kinase inhibition assay (CycLex ELISA); assay type: biochemical; settings: 7.5 μM ATP, read-out: PLK1 Kinase Inhibitory Act. IC50
T2 construct: This ELISA assay measures the catalytic activity of full length PLK1 for a defined substrate
T2 sequence (P53350 whole entry): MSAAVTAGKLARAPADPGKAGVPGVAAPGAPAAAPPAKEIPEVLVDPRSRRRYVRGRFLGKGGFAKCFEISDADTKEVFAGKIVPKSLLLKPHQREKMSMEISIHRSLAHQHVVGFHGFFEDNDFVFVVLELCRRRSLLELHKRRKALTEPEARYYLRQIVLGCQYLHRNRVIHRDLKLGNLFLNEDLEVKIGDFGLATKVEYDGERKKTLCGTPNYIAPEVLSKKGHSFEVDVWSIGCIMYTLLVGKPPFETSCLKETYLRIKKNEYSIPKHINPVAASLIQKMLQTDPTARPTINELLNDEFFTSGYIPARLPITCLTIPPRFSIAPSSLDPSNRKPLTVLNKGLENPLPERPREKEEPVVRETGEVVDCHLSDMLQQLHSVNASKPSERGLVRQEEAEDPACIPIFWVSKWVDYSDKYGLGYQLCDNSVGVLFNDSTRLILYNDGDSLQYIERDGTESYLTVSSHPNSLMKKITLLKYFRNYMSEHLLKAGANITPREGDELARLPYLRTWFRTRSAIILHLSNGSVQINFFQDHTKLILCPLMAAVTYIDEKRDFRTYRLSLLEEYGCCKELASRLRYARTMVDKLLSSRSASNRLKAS
From the text: PLK1 Kinase Inhibition Assay
The CycLex® Polo-like Kinase 1 Assay/Inhibitor Screening Kit was used to measure catalytic inhibition (MBL Life Science, Nagano, Japan). This ELISA assay measures the catalytic activity of full length PLK1 for a defined substrate, which is detected by an anti-phospho-threonine antibody (PPT-07) and peroxidase coupled secondary antibody. […] Peroxidase catalyzes the conversion of the colorless solution to yellow, which was quantified using a DTX 880 plate reader. Absorbance measurements (450 nm) were plotted to calculate activity in each sample, and % inhibition was calculated in the wells relative to activity in the absence of inhibitor.

[1] = tested on: HeLa cervical cancer cells; experiment: Cell viability assay (MTT), HeLa; assay type: cell-based; settings: MTT, 72 hours; read-out: HeLa
Method: HeLa cervical cancer cells were obtained from ATCC (Manassas, Va.). […] Cells were maintained in DMEM (Invitrogen™, Carlsebad, Calif.) supplemented with 10% FBS or Corning© Nu-Serum™ (BD™ Biosciences, Franklin Lakes, N.J.) and 1% penicillin/streptomycin (Invitrogen™) in a humidified incubator and 5% CO2 at 37° C.
(§1) Exponentially growing cells were plated in 96-well dishes. Dose response curves were used to treat cells for 72 hours with inhibitors. Following the three-day treatment, cell viability was measured using the MTT (3-(4,5-dimethylthiazol-2-yl)-2,5-diphenyltetrazolium bromide) colorimetric assay. Cells were incubated for 3 hours with MTT allowing viable cells to metabolize the tetrazolium dye to a purple colored solution.

[2] = tested on: PTEN deficient prostate cancer (PC3) cells; experiment: Cell viability assay (MTT), PC3; assay type: cell-based; settings: MTT, 72 hours; read-out: PCC-3
Method: PC3 prostate cancer cells were maintained in DMEM (Invitrogen™, Carlsebad, Calif.) supplemented with 10% FBS or Corning® Nu-Serum™ (BD™ Biosciences, Franklin Lakes, N.J.) and 1% penicillin/streptomycin (Invitrogen™) in a humidified incubator and 5% C02 at 37° C.
as §1

[3] = tested on: KRAS mutant lung cancer (A-549) cells; experiment: Cell viability assay (MTT), A-549; assay type: cell-based; settings: 72 hours
Method: A-549 lung cancer cells were maintained in Hams F-12 1× with glutamine (Corning® Cellgro, Manassas, Va.), and supplemented with 10% FBS or Corning® Nu-Serum™ (BD™ Biosciences, Franklin Lakes, N.J.) and 1% penicillin/streptomycin (Invitrogen™) in a humidified incubator and 5% C02 at 37° C.
as §1, with “solution. Absorbance measurements (595 nm) were quantified using a DTX 880 plate reader and IC50 values were generated for FLIPs.” for “solution.”

[4] = tested on: HCT-116 (p53−/−) colon cancer cells; experiment: Cell viability assay (MTT), HCT116 p53-/-; assay type: cell-based; settings: 72 hours
Method: HCT-116 (p53+/+ and −/−) colon cancer cells were maintained DMEM (Invitrogen™, Carlsebad, Calif.) supplemented with 10% FBS or Nu-serum (BD™ Biosciences, Franklin Lakes, N.J.) and 1% penicillin/streptomycin (Invitrogen™) in a humidified incubator and 5% C02 at 37° C.
as §1, with “solution. Absorbance measurements (595 nm) were quantified using a DTX 880 plate reader and IC50 values were generated for FLIPs.” for “solution.”

[5] = tested on: HCT-116 (p53+/+) colon cancer cells; experiment: Cell viability assay (MTT), HCT116 p53+/+; assay type: cell-based; settings: 72 hours
Method: as §1

PC3 cells [6] = experiment: Cell cycle analysis after release (DAPI/BrdU FACS), FIG. 3; assay type: cell-based; settings: FIG. 3 4th panel, concentration not given
Method: PLK specificity can be useful in therapeutic applications, as well as in research-oriented application.
(§2) Analysis of Cell Cycle Progression by FACS
(§3) Serum-Starved Synchronization
(§4) Cells were synchronized in G1 by serum starvation. Briefly, exponentially growing cells were plated overnight. Media (DMEM, 10% FBS, 1% Pen. Strep.) was then removed and replaced with media containing no FBS. Cells were starved for 72 hours then treated for 24 hours with inhibitor. Following treatment, cells were harvested and processed for endpoint experimental analysis.
(§5) Ethanol fixative was removed by centrifugation and the cells were washed with 1 mL ice-cold PBS/1% BSA. Cells were denatured by resuspending in 0.2 mg/mL pepsin in 2N HCl and incubated in 37° C. water bath for 15 minutes. Hydrolysis was then terminated by adding 1 M Invitrogen™ Novex® Tris-Glycine. Cells were then washed with PBS/1% BSA then the primary anti-BrdU antibody (1:100 dilution in TBFP; 0.5% Tween-20, 1% BSA, 1% FBS, PBS) was added and cells were incubated for 25 minutes in the dark, at room temperature. […] Cells were washed once more with PBS/1% BSA and re-suspended in DAPI for 30 minutes before being analyzed by flow cytometry.

PC3 cells [7] = experiment: Cell cycle analysis and BrdU pulse labeling in PC3 cells, FIG. 9-11; assay type: cell-based
Method: as §2, §3, §4, §5
The PLK1 PBD-inhibitors were analyzed further by cell cycle analysis in PC3 cells (FIG. 9). […] To quantify the percentage of cells actively proliferating (synthesizing their DNA) or arrested Bromodeoxyuridine (BrdU) pulse labeling was carried out and analyzed by flow cytometry.

[8] = Cell cycle analysis and caspase apoptosis assay; assay type: cell-based
From the text: Disclosed small molecule inhibitors can also encourage apoptosis.

T1 sequence (P53350 367-603): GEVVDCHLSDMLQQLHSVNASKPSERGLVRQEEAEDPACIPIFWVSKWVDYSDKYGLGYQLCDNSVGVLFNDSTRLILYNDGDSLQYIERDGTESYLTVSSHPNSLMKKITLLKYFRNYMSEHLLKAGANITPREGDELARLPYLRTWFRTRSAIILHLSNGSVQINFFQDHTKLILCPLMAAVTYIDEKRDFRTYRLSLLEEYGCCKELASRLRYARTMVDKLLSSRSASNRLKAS

Q: With `CCCCCCCCc1ccc(C(=O)Nc2ccc(C)cc2C(=O)O)cc1` [SCCP ID No. 5915] as the compound, how does the “PLK1 versus PLK3 specificity (in words)” value (PLK1 PBD (367-603); PBD binding) read?
A: high selectivity for PLK1

Q: And the IC50 (PLK1 PBD (367-603); PLK1 PBD binding, fluorescence polarization, read-out: PLK1 IC50)?
A: 2.16 ± 0.01 µM

Q: What about the IC50 (full length PLK1) of the same compound?
A: 24.3 µM

Q: What about the IC50 [1] of the same compound?
A: 15.5 ± 1.7 µM

Q: And the IC50 [2]?
A: 16.3 ± 2.1 µM

Q: And the IC50 [3]?
A: 5.1 ± 1.5 µM

Q: And the IC50 [4]?
A: 10 ± 1 µM

Q: And the IC50 [5]?
A: 17.4 ± 5.6 µM

Q: What about the “G2/M by DAPI” value (PC3 cells [6]) of the same compound?
A: 42%

Q: And the “cells BrdU+” value (PC3 cells [6])?
A: 13%

Q: And the “cells replicating their DNA (BrdU labeling)” value (PC3 cells [7]; 5 μM)?
A: 28.3%

Q: What about the “BrdU+” value (PC3 cells [7]; 15 μM) of the same compound?
A: 3.6%

Q: And the “cell cycle phenotype (in words)” value (PC3 cells [7]; 15 μM)?
A: G1 delay or arrest

Q: What about the “levels of apoptosis (in words)” value [8] of the same compound?
A: high levels of apoptosis
